Experimental data published in ChEMBL document CHEMBL1201862, “PubChem BioAssay data set” (2004).
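In this assay, cells in 96-well plates receive the compound at five concentrations for 48 hours. Endpoints are linearly interpolated between the surrounding concentrations. At the GI50, growth is halved.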 Activity calls are given as the source filed them. Cut-off read from the data, not from the text of the source: active = GI50 up to about 1.1 µM and inactive = higher.

Legend:
Assay in all cases: inhibition of tumour cell growth, NCI panel, 48 h
A498 = system: A498
SN12C = system: SN12C
MDA-MB-231 = system: MDA-MB-231
DU-145 = system: DU-145
HT-29 = system: HT-29
LOX IMVI = system: LOX IMVI
ACHN = system: ACHN
UACC-257 = system: UACC-257
UO-31 = system: UO-31
SK-MEL-2 = system: SK-MEL-2
HOP-62 = system: HOP-62
T47D = system: T47D
PC-3 = system: PC-3
MOLT-4 = system: MOLT-4
NCI-H460 = system: NCI-H460
786-0 = system: 786-0
NCI-H522 = system: NCI-H522
U-251 = system: U-251
MDA-N = system: MDA-N
M14 = system: M14
HOP-92 = system: HOP-92
SK-OV-3 = system: SK-OV-3
RPMI-8226 = system: RPMI-8226
HCC 2998 = system: HCC 2998
OVCAR-8 = system: OVCAR-8
SK-MEL-5 = system: SK-MEL-5
SNB-75 = system: SNB-75
NCI-H226 = system: NCI-H226
SR = system: SR
NCI-H23 = system: NCI-H23
MCF7 = system: MCF7
OVCAR-4 = system: OVCAR-4
K562 = system: K562
CCRF-CEM = system: CCRF-CEM
SK-MEL-28 = system: SK-MEL-28
COLO 205 = system: COLO 205
TK-10 = system: TK-10
SF-295 = system: SF-295
HCT-116 = system: HCT-116
OVCAR-3 = system: OVCAR-3
UACC-62 = system: UACC-62
SF-268 = system: SF-268
A549 = system: A549
IGROV-1 = system: IGROV-1
HCT-15 = system: HCT-15
MDA-MB-435 = system: MDA-MB-435
CAKI-1 = system: CAKI-1
KM12 = system: KM12
SNB-19 = system: SNB-19
SW-620 = system: SW-620
NCI/ADR-RES = system: NCI/ADR-RES
Hs-578T = system: Hs-578T
OVCAR-5 = system: OVCAR-5
RXF 393 = system: RXF 393
EKVX = system: EKVX
SF-539 = system: SF-539
BT-549 = system: BT-549

SMILES: COC(C/C(=C/CO[Si](C(C)C)(C(C)C)C(C)C)C(=O)N(C(=O)OC(C)(C)C)c1ccccc1I)OC
- GI50 (A498): > 100 µM (inactive)
- GI50 (SN12C): 52 µM (inactive)
- GI50 (MDA-MB-231): > 10 µM (inactive)
- GI50 (DU-145): > 100 µM (inactive)
- GI50 (HT-29): > 100 µM (inactive)
- GI50 (LOX IMVI): 18.2 µM (inactive)
- GI50 (ACHN): 45.9 µM (inactive)
- GI50 (UACC-257): 38.8 µM (inactive)
- GI50 (UO-31): 42.1 µM (inactive)
- GI50 (SK-MEL-2): 17.8 µM (inactive)
- GI50 (HOP-62): 57.7 µM (inactive)
- GI50 (T47D): 36.8 µM (inactive)
- GI50 (PC-3): 23.6 µM (inactive)
- GI50 (MOLT-4): 22.9 µM (inactive)
- GI50 (NCI-H460): 31.8 µM (inactive)
- GI50 (786-0): 28.4 µM (inactive)
- GI50 (NCI-H522): 2.77 µM (inactive)
- GI50 (U-251): 37.6 µM (inactive)
- GI50 (MDA-N): 26.9 µM (inactive)
- GI50 (M14): 47.2 µM (inactive)
- GI50 (HOP-92): 2.16 µM (inactive)
- GI50 (SK-OV-3): > 100 µM (inactive)
- GI50 (RPMI-8226): 15.2 µM (inactive)
- GI50 (HCC 2998): 40.6 µM (inactive)
- GI50 (OVCAR-8): > 100 µM (inactive)
- GI50 (SK-MEL-5): 56.2 µM (inactive)
- GI50 (SNB-75): > 100 µM (inactive)
- GI50 (NCI-H226): > 100 µM (inactive)
- GI50 (SR): 34.4 µM (inactive)
- GI50 (NCI-H23): 39.7 µM (inactive)
- GI50 (MCF7): 18.7 µM (inactive)
- GI50 (OVCAR-4): 44.6 µM (inactive)
- GI50 (K562): > 100 µM (inactive)
- GI50 (CCRF-CEM): > 10 µM (inactive)
- GI50 (SK-MEL-28): 67.3 µM (inactive)
- GI50 (COLO 205): 67.5 µM (inactive)
- GI50 (TK-10): 49 µM (inactive)
- GI50 (SF-295): 10.7 µM (inactive)
- GI50 (HCT-116): 11.8 µM (inactive)
- GI50 (OVCAR-3): 29.2 µM (inactive)
- GI50 (UACC-62): > 100 µM (inactive)
- GI50 (SF-268): > 100 µM (inactive)
- GI50 (A549): 28.8 µM (inactive)
- GI50 (IGROV-1): 0.0262 µM (active)
- GI50 (HCT-15): 33.4 µM
- GI50 (MDA-MB-435): 32.5 µM (inactive)
- GI50 (CAKI-1): 33.2 µM (inactive)
- GI50 (KM12): 41.9 µM (inactive)
- GI50 (SNB-19): 56.4 µM (inactive)
- GI50 (SW-620): 59.3 µM (inactive)
- GI50 (NCI/ADR-RES): > 100 µM (inactive)
- GI50 (Hs-578T): 83.4 µM (inactive)
- GI50 (OVCAR-5): 36.1 µM (inactive)

SMILES: c1ccc(Nn2c(CCCCCCCCc3nnc(COc4ccccc4)n3Nc3ccccc3)nnc2COc2ccccc2)cc1
- GI50 (A498): 87.9 µM (inactive)
- GI50 (MDA-MB-231): 20 µM (inactive)
- GI50 (HT-29): 24.3 µM (inactive)
- GI50 (UACC-257): 13.9 µM (inactive)
- GI50 (MOLT-4): 18 µM (inactive)
- GI50 (NCI-H522): 16.1 µM (inactive)
- GI50 (RXF 393): 48.5 µM (inactive)
- GI50 (MDA-N): 11 µM (inactive)
- GI50 (MCF7): 11.5 µM (inactive)
- GI50 (HCT-116): 16.2 µM (inactive)
- GI50 (UACC-62): 1.74 µM (inactive)
- GI50 (A549): 11.8 µM (inactive)
- GI50 (EKVX): 32.7 µM (inactive)
- GI50 (SF-539): 12.8 µM (inactive)
- GI50 (SNB-19): 36.9 µM (inactive)
- GI50 (Hs-578T): 72.8 µM (inactive)
- GI50 (BT-549): 58.5 µM (inactive)
